For orientation: IC50 means the concentration that inhibits the measured activity by half. Read a high IC50 as a need for much substance.

This test has as its target T1, TRPC5 channel (Homo sapiens, UniProt Q9UL62).
T1 construct: expressed in transfected cells; host or cells: HEK293/TREx (Invitrogen), tetracycline-induced
T1 sequence (Q9UL62 1-973): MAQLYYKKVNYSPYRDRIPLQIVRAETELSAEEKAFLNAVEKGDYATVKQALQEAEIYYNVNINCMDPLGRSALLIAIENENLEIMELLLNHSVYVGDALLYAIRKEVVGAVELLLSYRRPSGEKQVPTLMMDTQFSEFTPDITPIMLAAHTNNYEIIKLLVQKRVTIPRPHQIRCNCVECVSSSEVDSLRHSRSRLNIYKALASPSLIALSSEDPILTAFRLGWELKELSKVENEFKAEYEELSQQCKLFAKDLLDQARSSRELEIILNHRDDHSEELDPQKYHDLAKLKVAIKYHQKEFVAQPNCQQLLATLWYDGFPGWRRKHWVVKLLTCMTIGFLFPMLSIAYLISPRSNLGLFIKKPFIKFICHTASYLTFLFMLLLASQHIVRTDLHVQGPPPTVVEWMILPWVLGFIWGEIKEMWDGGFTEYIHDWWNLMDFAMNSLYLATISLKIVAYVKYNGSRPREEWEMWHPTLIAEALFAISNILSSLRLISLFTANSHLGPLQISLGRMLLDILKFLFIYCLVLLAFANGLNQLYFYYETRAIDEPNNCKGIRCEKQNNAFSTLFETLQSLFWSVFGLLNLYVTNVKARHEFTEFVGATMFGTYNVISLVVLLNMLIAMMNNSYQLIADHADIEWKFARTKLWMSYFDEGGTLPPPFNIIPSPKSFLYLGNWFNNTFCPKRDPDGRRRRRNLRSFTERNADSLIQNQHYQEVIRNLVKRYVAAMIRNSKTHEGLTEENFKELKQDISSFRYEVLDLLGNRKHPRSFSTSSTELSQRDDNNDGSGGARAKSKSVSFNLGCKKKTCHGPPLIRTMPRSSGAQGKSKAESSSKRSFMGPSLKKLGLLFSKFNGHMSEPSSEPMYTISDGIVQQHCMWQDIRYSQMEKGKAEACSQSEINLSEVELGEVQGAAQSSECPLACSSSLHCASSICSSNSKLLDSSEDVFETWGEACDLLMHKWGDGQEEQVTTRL
As to the kind of experiment: High throughput screening assay: Fluo4 cell-based fluorescence assay of intracellular Ca2+ rise. As to conditions: HEK293/TREx cells inducibly expressing TRPC5, 0.027-20 μM in triplicate, NF = no IC50 curve could be fit. An excerpt:
The assay depended on detection of the rise in intracellular Ca2+ concentration ([Ca2+]i) following channel activation in cells inducibly expressing the TRPC5 channel. Ca2+ rise was quantified with the use of fluorescent Ca2+ indicators that were loaded into cells and thereafter indicated the [Ca2+]i Ca2+ influx followed activation of the TRPC5 channel. Compounds inhibiting the [Ca2+]i rise were considered hits for further investigation.
The commercially available HEK293/TREx line (Invitrogen) was stably transfected with a TRPC5 construct and screened by conventional calcium imaging to find clones with TRPC5 expression following stimulation with 1 μg/ml tetracycline. These cells were maintained in the growth medium recommended by the manufacturer supplemented with 100 μg/ml hygromycin to promote retention of the TRPC5 construct. After growing to near confluency, cells were plated at a density of ˜35,000 cells/well in 384 well CellBind plates (Corning) in the presence of 1 μg/ml tetracycline, and allowed to grow for 20-30 hrs. A nearly confluent monolayer resulted. Cells were then loaded with Ca2+ dye: Fura-2/AM or Fluo4/AM was added to the wells to a final concentration of 4 μM or 0.5 μM, respectively, and incubated for 80 min or 60 min, respectively, at room temperature. Supernatant was then removed from the cells by inverting plates with a sharp flick, and 25 μl Hank's Balanced Salt Solution (HBSS; 0.185 g/l D-glucose, 0.9767 g/l MgS04 (anhydrous), 0.4 g/l KCl, 0.06 g/l KH2PO4 (anhydrous), 0.35 g/l NaHCO3, 8.0 g/l NaCl, and 0.04788 g/l Na2HPO4 (anhydrous); pH 7.4) was then added to each well. Following ˜0.5 hour for recovery from loading, cells were assayed using the Hamamatsu FDSS 6000 system, which permitted illumination alternately at 340 nm and 380 nm for Fura-2 experiments, or at 485 nm for Fluo4 experiments. Frames were acquired at a rate of 0.2 Hz. During the assay, the plates were continuously vortexed, with pipette mixing of wells following addition of each reagent. For the screening assay, 26 μl of a diluted compound stock (at 50 μM) was added to each well for 2 minutes following the collection of a short (4 frame) baseline. 13 μl 62 mM high-Ca2+Ringer solution (4.17 ml of normal ringer (with 2 mM Ca2+) plus 5.83 ml of isotonic calcium ringer (105 mM Ca2+; in this ringer all sodium has been replaced with calcium)) was then added to each well, achieving a final concentration of 14 mM Ca2+ and 10 μM test compound. Data was collected for ˜3 minutes following addition of high Ca2+Ringer, where the fluorescent intensity (for Fluo4) and the F340/F380 ratio (for Fura-2) were proportional to the [Ca2+]i Negative controls consisted of HEK293/TREx TRPC5 cells exposed to high Ca2+ solution, but no compound. Positive control conditions consisted of addition of 2-APB, a promiscuous blocker of TRPC5 and other channels, to columns 23 and 24 of the plates, to a final concentration of 200 μM. These controls defined a screening window, and “hits” were defined as those compounds inhibiting the fluorescence response by at least 40%. IC50 values were determined for compounds defined as “hits.” The Fluo4 cell-based fluorescence assay was used to determine the intracellular Ca2+ concentration in the presence of varying drug concentration. Final concentrations of compounds tested were 20 μM, 6.667 μM, 2.222 μM, 0.741 μM, 0.247 μM, 0.082 μM, and 0.027 μM. Compounds were tested in triplicate at all concentrations. Standard software was used to fit IC50 curves. A value of NF was assigned when no IC50 curves could not be fit.
Additionally or alternatively, efficacy can be represented as % inhibition in the presence (of a given concentration of compound) versus the absence of compound or in comparison to a control compound. For example, efficacy can be represented as % inhibition of ion flux in the presence versus the absence of compound.
In turn, `Cn1c(=O)n(CCCO)c(=O)c2c(Cc3ccc(Cl)cc3)c(Oc3cccnc3)cnc21` [Compound 14, 5-(4-chlorobenzyl)-3-(3-hydroxypropyl)-1-methyl-6-(pyridin-3-yloxy)pyrido[2,3-d]pyrimidine-2,4(1H,3H)-dione] came in with an IC50 of 3250 nM.

Regarding `Cn1c(=O)n(CCCO)c(=O)c2c(Cc3ccc(Cl)cc3)c(Oc3cncc(F)c3)cnc21` [Compound 15, 5-(4-chlorobenzyl)-6-((5-fluoropyridin-3-yl)oxy)-3-(3-hydroxypropyl)-1-methylpyrido[2,3-d]pyrimidine-2,4(1H,3H)-dione], inhibition was half-maximal at 7530 nM (IC50).

The compound `Cn1c(=O)n(CCCO)c(=O)c2c(Cc3ccc(Cl)cc3)c(Oc3cncc(Cl)c3)cnc21` [Compound 16, 5-(4-chlorobenzyl)-6-((5-chloropyridin-3-yl)oxy)-3-(3-hydroxypropyl)-1-methylpyrido[2,3-d]pyrimidine-2,4(1H,3H)-dione] came in with a concentration for half-maximal inhibition (IC50) of 3740 nM.

As for `CC(C)c1ccccc1-c1cnc2c(c1C(O)c1ccc(Cl)cc1)c(=O)n(CCCO)c(=O)n2C` (stereo not drawn) [Compound 20, 5-((4-chlorophenyl)(hydroxy)methyl)-3-(3-hydroxypropyl)-6-(2-isopropylphenyl)-1-methylpyrido[2,3-d]pyrimidine-2,4(1H,3H)-dione], half-maximal inhibition (IC50) was put at 977 nM.

Compound `Cn1c(=O)n(CCCO)c(=O)c2c(Cc3ccc(C(F)(F)F)cc3)c(Oc3cccc(C(F)(F)F)c3)cnc21` [Compound 22, 3-(3-hydroxypropyl)-1-methyl-5-(4-(trifluoromethyl)benzyl)-6-(3-(trifluoromethyl)phenoxy)pyrido[2,3-d]pyrimidine-2,4(1H,3H)-dione] came in with an IC50 of 180 nM.

Compound `Cn1c(=O)n(CCCO)c(=O)c2c(Cc3ccc(C(F)(F)F)nc3)c(Oc3cccc(C(F)(F)F)c3)cnc21` [Compound 24, 3-(3-hydroxypropyl)-1-methyl-6-(3-(trifluoromethyl)phenoxy)-5-((6-(trifluoromethyl)pyridin-3-yl)methyl)pyrido[2,3-d]pyrimidine-2,4(1H,3H)-dione] displayed an IC50 of 1340 nM.

Consider `Cn1c(=O)n(CCCO)c(=O)c2c(Cc3ccc(Cl)cc3)c(-c3cccc(F)c3)cnc21` [Compound 25, 5-(4-chlorobenzyl)-6-(3-fluorophenyl)-3-(3-hydroxypropyl)-1-methylpyrido[2,3-d]pyrimidine-2,4(1H,3H)-dione], for which the IC50 is 739 nM.

The compound `Cn1c(=O)n(CCCO)c(=O)c2c(Cc3ccc(Cl)cc3)c(Oc3cccc(Cl)c3)cnc21` [Compound 26, 5-(4-chlorobenzyl)-6-(3-chlorophenoxy)-3-(3-hydroxypropyl)-1-methylpyrido[2,3-d]pyrimidine-2,4(1H,3H)-dione] came in with a concentration for half-maximal inhibition (IC50) of 1290 nM.

`CC(C)c1cccc(Oc2cnc3c(c2Cc2ccccc2)c(=O)n(CCCO)c(=O)n3C)c1` [Compound 28, 5-benzyl-3-(3-hydroxypropyl)-6-(3-isopropylphenoxy)-1-methylpyrido[2,3-d]pyrimidine-2,4(1H,3H)-dione] gave an IC50 of 28.5 nM.

Turning to `Cn1c(=O)n(CCCO)c(=O)c2c(Cc3ccc(C(F)(F)F)nc3)c(Oc3cccc(OC(F)(F)F)c3)cnc21` [Compound 32, 3-(3-hydroxypropyl)-1-methyl-6-(3-(trifluoromethoxy)phenoxy)-5-((6-(trifluoromethyl)pyridin-3-yl)methyl)pyrido[2,3-d]pyrimidine-2,4(1H,3H)-dione], the IC50 was 350 nM. This IC50 is about 12-fold higher than that of the compound before.

`CC(C)CCc1c(OC(C)C)cnc2c1c(=O)n(CCCO)c(=O)n2C` [Compound 37, 3-(3-hydroxypropyl)-5-isopentyl-6-isopropoxy-1-methylpyrido[2,3-d]pyrimidine-2,4(1H,3H)-dione] displayed an IC50 of 1160 nM.

Compound `CC(C)c1ccccc1-c1cnc2c(c1Cc1ccc(Cl)cc1)c(=O)n(CCCO)c(=O)n2C` [Compound 38, 5-(4-chlorobenzyl)-3-(3-hydroxypropyl)-6-(2-isopropylphenyl)-1-methylpyrido[2,3-d]pyrimidine-2,4(1H,3H)-dione] displayed a 50% inhibitory concentration (IC50) of 215 nM.

Compound `CC(C)c1ccccc1Oc1cnc2c(c1Cc1ccc(F)cc1)c(=O)n(CCCO)c(=O)n2C` [Compound 41, 5-(4-fluorobenzyl)-3-(3-hydroxypropyl)-6-(2-isopropylphenoxy)-1-methylpyrido[2,3-d]pyrimidine-2,4(1H,3H)-dione] registered an IC50 of 33.8 nM. This IC50 lies about 6.4-fold lower than the previous one.

Compound `Cn1c(=O)n(CCCO)c(=O)c2c(Cc3ccc(C(F)(F)F)nc3)c(Oc3cccc(Cl)c3)cnc21` [Compound 43, 6-(3-chlorophenoxy)-3-(3-hydroxypropyl)-1-methyl-5-((6-(trifluoromethyl)pyridin-3-yl)methyl)pyrido[2,3-d]pyrimidine-2,4(1H,3H)-dione] gave an IC50 of 1420 nM.

On to `CC(C)CC(O)c1c(Oc2cccc(OC(F)(F)F)c2)cnc2c1c(=O)n(CCCO)c(=O)n2C` (stereo not drawn) [Compound 44, 5-(1-hydroxy-3-methylbutyl)-3-(3-hydroxypropyl)-1-methyl-6-(3-(trifluoromethoxy)phenoxy)pyrido[2,3-d]pyrimidine-2,4(1H,3H)-dione], for which the IC50 is 3450 nM. Compared with the last compound, the IC50 is about 2.4-fold higher.

`CC(C)CCc1c(Oc2cccc(C(F)(F)F)c2)cnc2c1c(=O)n(CCCO)c(=O)n2C` [Compound 46, 3-(3-hydroxypropyl)-5-isopentyl-1-methyl-6-(3-(trifluoromethyl)phenoxy)pyrido[2,3-d]pyrimidine-2,4(1H,3H)-dione] came in with an IC50 greater than 20000 nM.

As to `CC(C)CCc1c(Oc2cccc(Cl)c2)cnc2c1c(=O)n(CCCO)c(=O)n2C` [Compound 48, 6-(3-chlorophenoxy)-3-(3-hydroxypropyl)-5-isopentyl-1-methylpyrido[2,3-d]pyrimidine-2,4(1H,3H)-dione], the half-maximal inhibitory concentration (IC50) was greater than 10000 nM.

In the case of `CC(C)CCc1c(Oc2cccc(OC(F)(F)F)c2)cnc2c1c(=O)n(CCCO)c(=O)n2C` [Compound 49, 3-(3-hydroxypropyl)-5-isopentyl-1-methyl-6-(3-(trifluoromethoxy)phenoxy)pyrido[2,3-d]pyrimidine-2,4(1H,3H)-dione], the IC50 was greater than 20000 nM.
